The record followed here is US10633417B2 (priority 2013, dated 2020).

One assay concerns the target human α9α10 nAChR (Homo sapiens, UniProt Q9GZZ6+Q9UGM1). As to the kind of experiment: cell-based. It is filed as cell-based.
The subject of the next assay is Sprague Dawley rats. The note with it: rat, in vivo.
The test system of assay [1] is Sprague-Dawley rats. The note with it: rat, in vivo.
Assay [2] concerns Sprague-Dawley rats. The note with it: rat, in vivo. The source holds these as a separate data set.
Assay [3] deals with Sprague-Dawley rats. The note with it: rat, in vivo. This is another data set of the same source.
Assay [4] has as its system Sprague-Dawley rats. To be noted: rat, in vivo. The source holds these as a separate data set.

Chain of human α9α10 nAChR (Q9UGM1 26-479 limits assumed): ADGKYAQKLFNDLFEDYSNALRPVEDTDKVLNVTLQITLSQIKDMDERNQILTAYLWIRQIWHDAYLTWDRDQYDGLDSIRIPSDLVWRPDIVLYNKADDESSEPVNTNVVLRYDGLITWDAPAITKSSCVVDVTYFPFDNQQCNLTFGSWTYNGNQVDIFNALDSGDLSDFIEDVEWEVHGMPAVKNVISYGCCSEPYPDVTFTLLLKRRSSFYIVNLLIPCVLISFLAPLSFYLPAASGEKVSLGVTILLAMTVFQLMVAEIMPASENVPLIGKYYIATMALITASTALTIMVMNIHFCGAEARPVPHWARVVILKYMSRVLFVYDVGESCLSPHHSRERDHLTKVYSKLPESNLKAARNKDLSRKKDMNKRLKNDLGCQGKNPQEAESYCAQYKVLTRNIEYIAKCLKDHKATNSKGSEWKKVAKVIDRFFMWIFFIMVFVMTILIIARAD
Chain of human α9α10 nAChR (Q9GZZ6 25-450 limits assumed): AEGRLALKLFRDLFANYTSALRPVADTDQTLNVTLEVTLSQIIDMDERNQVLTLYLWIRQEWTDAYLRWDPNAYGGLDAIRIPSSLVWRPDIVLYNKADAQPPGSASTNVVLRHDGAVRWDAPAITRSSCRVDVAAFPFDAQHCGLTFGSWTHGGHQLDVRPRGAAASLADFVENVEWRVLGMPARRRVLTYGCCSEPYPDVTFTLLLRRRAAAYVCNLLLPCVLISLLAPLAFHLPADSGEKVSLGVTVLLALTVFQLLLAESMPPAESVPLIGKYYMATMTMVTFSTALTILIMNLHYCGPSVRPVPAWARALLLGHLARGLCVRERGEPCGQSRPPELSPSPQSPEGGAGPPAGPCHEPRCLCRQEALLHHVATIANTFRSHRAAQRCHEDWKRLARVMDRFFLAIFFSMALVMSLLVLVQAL

Consider `C[C@@H](O)[C@@H]1NC(=O)[C@@H]2CSSC[C@@H](C(=O)N[C@@H](CCCNC(=N)N)C(=O)N[C@@H](CCCNC(=N)N)C(=O)N[C@@H](CCCNC(=N)N)C(=O)O)NC(=O)[C@H](CCC(N)=O)NC(=O)[C@H](Cc3ccc(O)c(I)c3)NC(=O)[C@H](CCCNC(N)=O)NC(=O)[C@H](CSSC[C@H](NC(=O)CN)C(=O)N2)NC(=O)[C@H](CCCNC(=N)N)NC(=O)[C@@H]2CCCN2C(=O)[C@H](CC(=O)O)NC1=O` [Analog 4], for which, at human α9α10 nAChR, the Fold improvement is 109 fold and the IC50 (as a rule, the point on the concentration scale where inhibition reaches its midpoint) came out at 4.55 nM.
Taken in the same sequence, the figures for `C[C@@H](O)[C@@H]1NC(=O)[C@@H]2CSSC[C@@H](C(=O)N[C@@H](Cc3ccc(O)cc3)C(=O)N[C@@H](CCCNC(=N)N)C(=O)N[C@@H](CCCNC(=N)N)C(=O)O)NC(=O)[C@H](CCC(N)=O)NC(=O)[C@H](Cc3ccc(O)c(I)c3)NC(=O)[C@H](CCCNC(N)=O)NC(=O)[C@H](CSSC[C@H](NC(=O)CN)C(=O)N2)NC(=O)[C@H](CCCNC(=N)N)NC(=O)[C@@H]2CCCN2C(=O)[C@H](CC(=O)O)NC1=O` [Analog 5] were 325 fold and 1.52 nM.
For `C[C@@H](O)[C@@H]1NC(=O)[C@@H]2CSSC[C@@H](C(=O)N[C@@H](CCCNC(=N)N)C(=O)N[C@@H](CCCNC(=N)N)C(=O)N[C@@H](Cc3ccc(O)cc3)C(=O)O)NC(=O)[C@H](CCC(N)=O)NC(=O)[C@H](Cc3ccc(O)c(I)c3)NC(=O)[C@H](CCCNC(N)=O)NC(=O)[C@H](CSSC[C@H](NC(=O)CN)C(=O)N2)NC(=O)[C@H](CCCNC(=N)N)NC(=O)[C@@H]2CCCN2C(=O)[C@H](CC(=O)O)NC1=O` [Analog 6], in that order: 120 fold and 4.11 nM.
Taken in the same sequence, the figures for `C[C@@H](O)[C@@H]1NC(=O)[C@@H]2CSSC[C@@H](C(=O)N[C@@H](Cc3ccccc3)C(=O)O)NC(=O)[C@H](CCC(N)=O)NC(=O)[C@H](Cc3ccc(O)c(I)c3)NC(=O)[C@H](CCCNC(N)=O)NC(=O)[C@H](CSSC[C@H](NC(=O)CN)C(=O)N2)NC(=O)[C@H](CCCNC(=N)N)NC(=O)[C@@H]2CCCN2C(=O)[C@H](CC(=O)O)NC1=O` [Analog 7] were 470 fold and 1.05 nM.
On human α9α10 nAChR, `C[C@@H](O)[C@@H]1NC(=O)[C@@H]2CSSC[C@@H](C(=O)N[C@@H](Cc3c[nH]c4ccccc34)C(=O)O)NC(=O)[C@H](CCC(N)=O)NC(=O)[C@H](Cc3ccc(O)c(I)c3)NC(=O)[C@H](CCCNC(N)=O)NC(=O)[C@H](CSSC[C@H](NC(=O)CN)C(=O)N2)NC(=O)[C@H](CCCNC(=N)N)NC(=O)[C@@H]2CCCN2C(=O)[C@H](CC(=O)O)NC1=O` [Analog 8] showed a Fold improvement of 236 fold and an IC50 of 2.09 nM.
On human α9α10 nAChR, `C[C@@H](O)[C@@H]1NC(=O)[C@@H]2CSSC[C@@H](C(=O)N[C@@H](Cc3ccc(O)cc3)C(=O)N[C@@H](Cc3ccc(O)cc3)C(=O)O)NC(=O)[C@H](CCC(N)=O)NC(=O)[C@H](Cc3ccc(O)c(I)c3)NC(=O)[C@H](CCCNC(N)=O)NC(=O)[C@H](CSSC[C@H](NC(=O)CN)C(=O)N2)NC(=O)[C@H](CCCNC(=N)N)NC(=O)[C@@H]2CCCN2C(=O)[C@H](CC(=O)O)NC1=O` [Analog 9] registered a Fold improvement of 553 fold and an IC50 of 0.893 nM.
For `C[C@@H](O)[C@@H]1NC(=O)[C@@H]2CSSC[C@@H](C(=O)N[C@@H](Cc3ccc(O)cc3)C(=O)N[C@@H](CCCNC(=N)N)C(=O)O)NC(=O)[C@H](CCC(N)=O)NC(=O)[C@H](Cc3ccc(O)c(I)c3)NC(=O)[C@H](CCCNC(N)=O)NC(=O)[C@H](CSSC[C@H](NC(=O)CN)C(=O)N2)NC(=O)[C@H](CCCNC(=N)N)NC(=O)[C@@H]2CCCN2C(=O)[C@H](CC(=O)O)NC1=O` [Analog 10], in that order: 598 fold and 0.826 nM.
For the molecule `C[C@@H](O)[C@@H]1NC(=O)[C@@H]2CSSC[C@@H](C(=O)N[C@@H](Cc3ccc(O)cc3)C(=O)O)NC(=O)[C@H](CCC(N)=O)NC(=O)[C@H](Cc3ccc(O)c(I)c3)NC(=O)[C@H](CCCNC(=N)N)NC(=O)[C@H](CSSC[C@H](NC(=O)CN)C(=O)N2)NC(=O)[C@H](CCCNC(=N)N)NC(=O)[C@@H]2CCCN2C(=O)[C@H](CC(=O)O)NC1=O` [Analog 11], the Fold improvement on human α9α10 nAChR is 1,123 fold.
Regarding `C[C@@H](O)[C@@H]1NC(=O)[C@@H]2C[Se]SC[C@@H](C(=O)N[C@@H](CCCNC(=N)N)C(=O)O)NC(=O)[C@H](CCC(N)=O)NC(=O)[C@H](Cc3ccc(O)c(I)c3)NC(=O)[C@H](CCCNC(N)=O)NC(=O)[C@H](CS[Se]C[C@H](NC(=O)CN)C(=O)N2)NC(=O)[C@H](CCCNC(=N)N)NC(=O)[C@@H]2CCCN2C(=O)[C@H](CC(=O)O)NC1=O` [SEQ ID NO:20, GX4X4TDPRCX2X3QCR], at human α9α10 nAChR, the Fold improvement was determined as 5.7 fold and the “fold increase in potency on the human receptor” value is 10 fold.
Turning to GCCTDPRCRX3QCY [Analog 11], in the assay with Sprague Dawley rats, the “burn-induced thermal hyperalgesia (Hargraves method)” value is on record as “significantly reduced”.
Consider GCCTDPRCX2X3QCRRR [Analog 4], for which the “potency on the human receptor after further optimization of Analog 2” value at human α9α10 nAChR was “improved potency”.
As to GCCTDPRCX2X3QCY [Analog 3], the “potency on the human receptor after further optimization of Analog 2” value at human α9α10 nAChR is listed as “improved potency”. For the same molecule, the “analgesic effect in OXA chemotherapy induced neuropathic pain” value with Sprague-Dawley rats [1] is reported as “analgesic effect”. Further, in the assay on Sprague-Dawley rats [2], the “efficacy on mechanical hyperalgesia 24 h after injection” value is “still significant”, the “pain threshold (mechanical hyperalgesia) 30 min after injection” value is “acutely increased pain threshold” and the “prevention of OXA-induced mechanical hyperalgesia” value is listed as “significantly prevented”. In addition, in the assay with Sprague-Dawley rats [3], the “OXA-induced pain threshold decrease (von Frey), day 7, 30 min” value was “reverted”; the “activity on mechanical allodynia (von Frey), days 14 and 21” value was “active”; the “analgesic effect (von Frey), day 7, 24 h later” value is listed as “not observed”. In the assay with Sprague-Dawley rats [4], the “prevention of OXA-induced cold allodynia, day 7” value is “able to prevent OXA-induced cold allodynia”; the “prevention of OXA-induced cold allodynia, day 14 and 21” value is given as “able to prevent OXA-induced cold allodynia”.
